Test results as given in PMC10902354, “Deficiency in PHD2-mediated hydroxylation of HIF2α underlies Pacak-Zhuang syndrome” (Communications Biology, 2024).

Test system: hypoxia-responsive element (HRE) reporter, HEK293A cells
Assay: Dual-luciferase reporter assay of HIF2α transcriptional activity (VEGFA-HRE) in HEK293A cells
Format: cell-based
Conditions: for HIF2α transcriptional activity, Firefly(RLU)/Renilla(RLU) (Normalized To WT Mean): Fig. 6a, normal oxygenated conditions; for HIF2α transcriptional activity, Firefly(RLU)/Renilla(RLU) (Normalized to WT Mean): Fig. 6b; for HIF2α transcriptional activity, Firefly(RLU)/Renilla(RLU) (Normalized to WT Mean) / HRE-driven transcriptional activity (in words): normoxic conditions; for HRE-driven transcriptional activity (in words): relative to HIF2α WT or other mutant
Source text: The following previously described plasmids were used in this study: pcDNA3-HA-VHL30[28] and pET-46-HIS6-PHD2[4]. pGL3-VEGFA-HRE was generated by amplifying nucleotides 1271-1797 of human VEGFA CDS (AH001553.2) using primers introducing 5’ KpnI and 3’ XhoI sites; digested PCR products were subcloned into pGL3-Basic (Promega) cut with KpnI and XhoI. pRL-SV40 was obtained from Promega. pcDNA3-HA-HIF2α has been previously described. Class 1 (D539N, A530V, P531A, Y532C) and Class 2 (M535T, G537R, P534R, Y532H) HIF2α mutants, as well as mutant P405A, were generated using QuikChange site-directed mutagenesis (Agilent) and confirmed by DNA sequencing. pcDNA3-HA-HIF2α -P405A/P531A was obtained from Addgene (Addgene plasmid # 18956)[29]. The α-HA tag antibody was obtained from Cell Signaling (C29F4). HIFα-CODD peptides were custom synthesized by Genscript and supplied at ≥ 95% purity. All synthesized peptides were C-terminally amidated, peptides used for MST binding studies and crystallography were N-terminally acetylated and peptides used for the indirect hydroxylation assays were N-terminally biotinylated. For crystallography and MST experiments peptides were dissolved directly into 50 mM Tris pH 8.0 buffer and for indirect hydroxylation assays N-terminally biotinylated peptides were initially dissolved in DMSO to create stock solutions and further diluted into aqueous buffers for immobilization on streptavidin agarose beads. The sequences of each peptide can be found in Supplementary Table 1.
HEK293A cells were maintained in DMEM (Wisent #319-015) supplemented with 10% (v/v) Fetal Bovine Serum (FBS, Wisent #098-150) in a humidified atmosphere at 37 °C and 5% CO2. Transfection complexes containing 2 μg of total DNA (0.8 ug pcDNA3-HA, 0.9 μg pGL3-VEGFa-HRE, 0.1 μg pRL-SV40, and 0.2 μg of either pcDNA3-HA-HIF2α-WT or mutant) and 8 ug Polyethyleneimine pH 7.2 (Polysciences, Cat #23966) in 400 μl OptiMEM™ Reduced Serum Medium (Gibco #31985070) were incubated for 15 min at room temperature, then were added to 5 × 10^5 HEK293A cells (diluted in 400 μl OptiMEM™) and incubated for an additional 5 min. Mixture was plated in six-well plates containing 2 ml complete medium and incubated at 37 °C, 5% CO2 for 24 h. Firefly luciferase and Renilla luciferase activity were measured with the Dual-Luciferase Reporter Assay System (Promega #E1960) according to the manufacturer’s instructions. Measurements (1 s) were recorded using a Varioskan Lux microplate reader (Thermo Fisher Scientific). For each sample, firefly RLU values were divided by corresponding Renilla RLU values.

| Substance | HIF2α transcriptional activity, Firefly(RLU)/Renilla(RLU) (Normalized To WT Mean) (Exp 1, 24 h) | HIF2α transcriptional activity, Firefly(RLU)/Renilla(RLU) (Normalized To WT Mean) (Exp 2, 24 h) | HIF2α transcriptional activity, Firefly(RLU)/Renilla(RLU) (Normalized To WT Mean) (Exp 3, 24 h) | HIF2α transcriptional activity, Firefly(RLU)/Renilla(RLU) (Normalized To WT Mean) (Exp 4, 24 h) | HIF2α transcriptional activity, Firefly(RLU)/Renilla(RLU) (Normalized To WT Mean) (Exp 5, 24 h) | HIF2α transcriptional activity, Firefly(RLU)/Renilla(RLU) (Normalized To WT Mean) (mean of Exp 1-5, 24 h) | HIF2α transcriptional activity, Firefly(RLU)/Renilla(RLU) (Normalized to WT Mean) (Exp 1, 24 h) | HIF2α transcriptional activity, Firefly(RLU)/Renilla(RLU) (Normalized to WT Mean) (Exp 2, 24 h) | HIF2α transcriptional activity, Firefly(RLU)/Renilla(RLU) (Normalized to WT Mean) (Exp3, 24 h) | HIF2α transcriptional activity, Firefly(RLU)/Renilla(RLU) (Normalized to WT Mean) (mean of Exp 1-3, 24 h) | HRE-driven transcriptional activity (in words) (listed as P405A mutant) | HRE-driven transcriptional activity (in words) (listed as P405A mutation) | HRE-driven transcriptional activity (in words) (listed as HIF2αP405A/P531A) |
| --- | --- | --- | --- | --- | --- | --- | --- | --- | --- | --- | --- | --- | --- |
| HIF2a-D539N: Class 1 HIF2α mutant expressed from plasmid in HEK293A cells | 2.166 | 1.679 | 1.625 | 2.569 | 1.2135 | 1.85 |  |  |  |  |  |  |  |
| HIF2a-Y532H: Class 2 HIF2α mutant expressed from plasmid in HEK293A cells | 1.505 | 1.636 | 0.8256 | 1.673 | 0.9402 | 1.316 |  |  |  |  |  |  |  |
| HIF2a-P405A: HIF2α NODD site mutant expressed from plasmid in HEK293A cells |  |  |  |  |  |  | 0.6521 | 1.374 | 0.7703 | 0.9323 | transcriptional activity comparable to wild-type HIF2α | no significant increase in HIF2α transcriptional activation activity |  |
| HIF2a-G537R: Class 2 HIF2α mutant expressed from plasmid in HEK293A cells | 1.297 | 1.639 | 0.7606 | 1.668 | 0.917 | 1.256 |  |  |  |  |  |  |  |
| HIF2a-WT: HA-HIF2α WT expressed from pcDNA3-HA-HIF2α in HEK293A cells | 1.095 | 1.349 | 0.5003 | 1.339 | 0.7176 | 1 | 0.6881 | 1.449 | 0.8624 | 1 |  |  |  |
| HIF2a-A530V: Class 1 HIF2α mutant expressed from plasmid in HEK293A cells | 2.033 | 1.3534 | 1.897 | 3.054 | 1.561 | 1.98 |  |  |  |  |  |  |  |
| HIF2a-P534R: Class 2 HIF2α mutant expressed from plasmid in HEK293A cells | 1.1133 | 1.547 | 1.102 | 1.425 | 0.8617 | 1.21 |  |  |  |  |  |  |  |
| HIF2a-M535T: Class 2 HIF2α mutant expressed from plasmid in HEK293A cells | 1.412 | 1.394 | 0.5168 | 1.444 | 0.9762 | 1.149 |  |  |  |  |  |  |  |
| HIF2a-P405A/P531A: HIF2α NODD and CODD site double mutant (Addgene plasmid 18956) |  |  |  |  |  |  | 1.594 | 4.627 | 2.493 | 2.905 |  |  | indistinguishable transcriptional activity from HIF2αP531A single mutant |
| HIF2a-Y532C: Class 1 HIF2α mutant expressed from plasmid in HEK293A cells | 1.579 | 1.687 | 2.039 | 3.004 | 1.351 | 1.932 |  |  |  |  |  |  |  |
| HIF2a-P531A: Class 1 HIF2α mutant (CODD site mutant) expressed from plasmid in HEK293A cells | 2.696 | 2.508 | 2.211 | 4.182 | 1.7617 | 2.672 | 2.003 | 3.782 | 2.069 | 2.618 |  |  |  |
